These results are taken from article PMC4118831, “Interaction of serum amyloid P component with hexanoyl bis(D-proline) (CPHPC)” (Acta Crystallographica Section D: Biological Crystallography, 2014).

In the assay the target is T1, serum amyloid P component (SAP) (Homo sapiens, UniProt P02743).
T1 construct: gene APCS; pentamer purified from serum; 204-residue subunits
Put plainly: ITC; crystal structure. The class given is binding. (In ITC the heat of successive injections is recorded.)

T1 sequence (P02743 20-223): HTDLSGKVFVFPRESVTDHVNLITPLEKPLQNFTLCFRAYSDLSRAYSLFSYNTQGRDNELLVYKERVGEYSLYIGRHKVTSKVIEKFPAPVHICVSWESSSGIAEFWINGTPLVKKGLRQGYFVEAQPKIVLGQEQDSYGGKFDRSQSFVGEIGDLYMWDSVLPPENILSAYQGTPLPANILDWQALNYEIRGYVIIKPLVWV

As a reminder, the Kd is the constant that tells how readily two partners part at equilibrium. A low value points to tighter binding. Take `CC(=O)N1CCC[C@@H]1C(=O)O` [N-acetyl-D-proline]: the Kd was determined as 18.6 µM.

On to `CC(=O)N1CCC[C@H]1C(=O)O` [N-acetyl-L-proline], for which the Kd came out at 322 µM.
